B1: β-catenin (Ctnnb1), mouse (other, UniProt Q02248 2-781, looked up)
chain: ATQADLMELDMAMEPDRKAAVSHWQQQSYLDSGIHSGATTTAPSLSGKGNPEEEDVDTSQVLYEWEQGFSQSFTQEQVADIDGQYAMTRAQRVRAAMFPETLDEGMQIPSTQFDAAHPTNVQRLAEPSQMLKHAVVNLINYQDDAELATRAIPELTKLLNDEDQVVVNKAAVMVHQLSKKEASRHAIMRSPQMVSAIVRTMQNTNDVETARCTAGTLHNLSHHREGLLAIFKSGGIPALVKMLGSPVDSVLFYAITTLHNLLLHQEGAKMAVRLAGGLQKMVALLNKTNVKFLAITTDCLQILAYGNQESKLIILASGGPQALVNIMRTYTYEKLLWTTSRVLKVLSVCSSNKPAIVEAGGMQALGLHLTDPSQRLVQNCLWTLRNLSDAATKQEGMEGLLGTLVQLLGSDDINVVTCAAGILSNLTCNNYKNKMMVCQVGGIEALVRTVLRAGDREDITEPAICALRHLTSRHQEAEMAQNAVRLHYGLPVVVKLLHPPSHWPLIKATVGLIRNLALCPANHAPLREQGAIPRLVQLLVRAHQDTQRRTSMGGTQQQFVEGVRMEEIVEGCTGALHILARDVHNRIVIRGLNTIPLFVQLLYSPIENIQRVAAGVLCELAQDKEAAEAIEAEGATAPLTELLHSRNEGVATYAAAVLFRMSEDKPQDYKKRLSVELTSSLFRTEPMAWNETADLGLDIGAQGEALGYRQDDPSYRSFHSGGYGQDALGMDPMMEHEMGGHHPGADYPVDGLPDLGHAQDLMDGLPPGDSNQLAWFDTDL
notes: Protein from lysates of BCR-ABL1-transformed Ctnnb1^ex3fl/+ murine B-ALL cells, immunoprecipitated with antibody 14/β-catenin; After Cre-ER^T2/4-OHT one allele lacks exon 3 (GSK3β phosphorylation sites), so the stabilised exon-3-deleted form and the wild type are both present

Assays:
[1] = test system: B-lymphoid leukemia and lymphoma cells; assay: Cell viability assay (Cell Titer Glo 2.0) with GSK3β inhibitors; format: cell-based, human; details: B-lymphoid vs myeloid and epithelial cells (PDX2, BV173, LAX2 vs THP1, SW620, H82); 3 days
Description: Forty thousand patient-derived pre-B ALL cells or twenty thousand leukemia/lymphoma cell lines or ten thousand colon/lung cancer cells were seed in a volume of 80 μl in complete growth medium on 96-well plate. GSK3β3 inhibitors were added at the indicated concentration in a total volume of 100 μl. After treatment for 3 days, Cell Titer Glo 2.0 assays (Promega) were performed according to the manufacturer's instructions. Relative viability was calculated by measuring the luminescence value and normalizing it to baseline values of untreated cells.
Data are shown as mean±s.d. unless stated. Statistical analysis was performed by GraphPad Prism 7 (GraphPad Software Inc.) using unpaired two-tailed t test or log-rank test as indicated in figure legends. Significance was considered at P<0.05. Kaplan-Meier survival analysis was used to estimate OS with GraphPad Prism 7. The investigators were not blinded to allocation during experiments and outcome assessment. Experiments were repeated to ensure reproducibility of the observations.

[2] = test system: β-catenin and MYC protein levels in B-ALL cells; assay: Western blot of β-catenin and MYC after GSK3β inhibitor treatment; format: cell-based, human; details: for β-catenin accumulation and MYC suppression: B-ALL (PDX2) cells, 16 hours, FIGS. 7A, 7C, 18C
Description: Cells were washed twice with ice-cold PBS and were lysed in CelLytic buffer (Sigma-Aldrich) supplemented with 1% protease inhibitor cocktail (Roche Diagnostics), 1% phosphatase inhibitor cocktail (EMD Millipore) and 1 mM PMSF (CST) on ice. 10-20 μg of cell lysates were separated on precast gels (Bio-Rad) and transferred on nitrocellulose membranes (Bio-Rad). After blocking for an hour in TBS-T with 2% BSA, membranes were probed with the appropriate primary antibodies listed in Table 6. Membranes were incubated with alkaline-phosphatase conjugated secondary antibodies (Invitrogen) and analyzed with Chemi Doc™ MP Imaging System (Bio-Rad). For fractionation experiment Nuclear and Cytoplasmic Extraction Reagent (Thermo Scientific) was used according to manufacturer's instructions.

[3] = cited from earlier work; for Outcome: clinical responses / Outcome: safety: Phase 1 and 2; for Outcome: MTD: i.v.; for safety and tolerability / PK/PD profile in clinical trials: micromolar plasma concentrations (Cmax)
[4] = test system: B-cell lymphoma cell lines; assay: Drug responses (AUC) to CHIR99021 across B-cell lymphoma cell lines; format: cell-based, human; details: 84 B-cell lymphoma cell lines; 8q24+ n=31, 8q24- n=53; P=5.2E-07
Excerpt: In some embodiments, the IC50 can be calculated by using the Broad Repurposing Library and the PRISM multiplexed cell-line viability assay. Any assay or technique known in the art can be used for the calculation of the IC50 for the purposed of the present invention. The mutation data for CTNNB1, APC, AXIN1, AXIN2 and GSK3β genes were acquired from https://cancer.sanger.ac.uk/cosmic. The data for RIC staining of β-catenin was obtained from https://www.proteinatlas.org/. The RNA-seq data and mass spectrometry data for β-catenin and IKZF1 in human cancer cell lines were obtained from depmap.org/portal/download/. Data for drug-response of solid tumor cell lines to were acquired from depmap.org/portal/download/. Hallmark Myc-Targets V1 and Hallmark Myc-Targets V2 gene sets were acquired from MSigDB. RNA-seq data was deposited to GEO with the accession number GSE196767 and ChIP-seq data was deposited to GEO with accession number GSE196745. All other data are available from the corresponding author upon reasonable request.

[5] = test system: Human B-ALL xenograft cells (SFO5); assay: Colony formation assay of B-ALL xenograft cells; format: cell-based; details: SFO5, lenalidomide 0.5 μM for 2 days
Description: For colony forming assays, 10,000 mouse BCR-ABL1 or NRAS^G12D were grown on MethoCult medium (M3231 or M3630 (with IL-7) respectively, StemCell Technologies) in 3-cm diameter dishes with an extra dish filled with water to prevent evaporation. Colony forming assays with human leukemia/lymphoma cell lines were performed by plating 10,000 cells on MethoCult medium without human cytokines (H4230). For mouse pre-B cells 50.000 cells were grown on MethoCult medium with IL-7 (M3630). For colony forming assays assessing mouse myeloid progenitors, 10,000 cells were grown on MethoCult medium with mouse SCF, IL-3, IL-6, EPO (M3434). For human cord-blood derived colonies, 1000 CD34^+ HSCs were plated on MethoCult medium with recombinant human SCF, IL-3, IL-6, EPO, G-CSF, GM-CSF (H4435). For all colony forming experiments, colonies were imaged and counted using GelCount (Oxford Optronix) and 7-14 days after plating.

[6] = target: T1, Stat5, mouse (mouse, UniProt Q9JIA0 1-793); assay: co-IP with anti-β-catenin antibody and Western blot, murine B-ALL cells (FIG. 4B)
T1 sequence: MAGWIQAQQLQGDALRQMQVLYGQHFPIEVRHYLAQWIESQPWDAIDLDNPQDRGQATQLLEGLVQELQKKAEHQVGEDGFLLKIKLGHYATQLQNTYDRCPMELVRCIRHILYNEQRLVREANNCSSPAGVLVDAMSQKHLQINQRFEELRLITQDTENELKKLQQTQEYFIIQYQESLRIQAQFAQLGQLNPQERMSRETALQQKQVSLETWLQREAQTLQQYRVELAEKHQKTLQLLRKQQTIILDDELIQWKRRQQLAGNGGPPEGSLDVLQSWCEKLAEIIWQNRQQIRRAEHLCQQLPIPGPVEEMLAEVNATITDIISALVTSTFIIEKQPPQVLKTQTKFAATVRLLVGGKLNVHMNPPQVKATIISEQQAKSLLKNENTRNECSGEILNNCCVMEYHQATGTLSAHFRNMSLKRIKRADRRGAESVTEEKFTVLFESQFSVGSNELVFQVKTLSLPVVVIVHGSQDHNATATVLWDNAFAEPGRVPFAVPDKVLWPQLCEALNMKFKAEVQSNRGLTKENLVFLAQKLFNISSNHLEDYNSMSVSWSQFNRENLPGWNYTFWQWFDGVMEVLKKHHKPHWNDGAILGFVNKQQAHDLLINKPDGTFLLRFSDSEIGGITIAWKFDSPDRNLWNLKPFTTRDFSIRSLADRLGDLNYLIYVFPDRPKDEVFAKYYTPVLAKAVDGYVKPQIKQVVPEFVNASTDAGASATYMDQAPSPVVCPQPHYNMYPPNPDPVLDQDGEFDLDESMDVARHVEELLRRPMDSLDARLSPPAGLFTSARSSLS
Description: Co-immunoprecipitation experiments were performed using Pierce Crosslink Magnetic IP/Co-IP kit according to manufacturer's instructions (Thermo Scientific).

| Molecule | selective cell death / drug response [1] | β-catenin accumulation and MYC suppression [2] | Outcome: clinical responses [3] | safety and tolerability / PK/PD profile in clinical trials [3] | other results |
| --- | --- | --- | --- | --- | --- |
| CHIR98014 | induced cell death at low nanomolar concentrations selectively in B-lymphoid but not myeloid and epithelial cells | induced massive accumulation of β-catenin in parallel with acute suppression of MYC |  |  |  |
| Cc1c[nH]c(-c2cnc(NCCNc3ccc(C#N)cn3)nc2-c2ccc(Cl)cc2Cl)n1 [CHIR99021, Laduviglusib] |  | induced massive accumulation of β-catenin in parallel with acute suppression of MYC | No clinical responses | demonstrated safety and tolerability at micromolar plasma concentrations | Outcome: MTD [3]: 80 mg; sensitivity of B-cell lymphoma cell lines with MYC-rearrangement (8q24+) vs without [4]: substantially less sensitive |
| O=c1sn(-c2cccc3ccccc23)c(=O)n1Cc1ccccc1 [Tideglusib] | no significant activity in any cell type | failure to induce β-catenin accumulation and MYC-suppression | No clinical responses | demonstrated safety and tolerability at micromolar plasma concentrations | Outcome: safety [3]: Phase 1 and 2, favorable safety; Outcome: MTD [3]: 120 mg |
| N#Cc1ccc2[nH]c(O)c(-c3ccc(CN4CCOCC4)cn3)c2c1 [AZD1080] |  |  |  | demonstrated safety and tolerability at micromolar plasma concentrations |  |
| Nc1cccc2c1CN(C1CCC(=O)NC1=O)C2=O (stereo not drawn) [lenalidomide] |  |  |  |  | colony formation under β-catenin accumulation [5]: relieved β-catenin-induced transcriptional repression of MYC and suppression of colony formation; MYC expression under β-catenin accumulation ([2]; SFO5 cells, lenalidomide 0.5 μM with LY2090314 20 nM): relieved β-catenin-induced transcriptional repression of MYC |
| O=C1Nc2cc(Br)ccc2/C1=C1/Nc2ccccc2/C1=N\O [6-Bromoindirubin-3′-oxime] | induced cell death at low nanomolar concentrations selectively in B-lymphoid but not myeloid and epithelial cells | induced massive accumulation of β-catenin in parallel with acute suppression of MYC |  |  |  |
| Cn1cc(C2=C(c3coc4ccc(F)cc34)C(=O)NC2=O)c2cc3c(cc21)OCO3 [9-ING-41, Elraglusib] | broad non-specific toxicity across all cell types tested | failure to induce β-catenin accumulation and MYC-suppression | No clinical response | demonstrated safety and tolerability at micromolar plasma concentrations | Outcome: safety [3]: Phase 1 and 2, favorable safety |
| B1 |  |  |  |  | binding result [6]: no binding |

Source: patent US20260240865A1, “HARNESSING IKZF:BETA-CATENIN COMPLEXES IN THE TREATMENT OF LYMPHOCYTE ASSOCIATED DISEASES OR CONDITIONS” (Yale University, priority 2022, published 2026)
